Measured values published in publication PMC7324608 (Scientific Reports, 2020).
Changes are numbered by the printed parent chain. Names and notes keep the numbering of the source. Where no end group is shown, it is not given here. [ ]: non-standard residue; d: D form. Tyr(3-NO2) = N[C@@H](Cc1ccc(O)c([N+](=O)[O-])c1)C(=O)O; 2Abz = Nc1ccccc1C(=O)O

B1: HpHtrA S164A (enzyme)
chain: GNIQIQSMPKVKERVSVPSKDDTIYSYHDSIKDSIKAVVNISTEKKIKNNFIGGGVFNDPFFQQFFGDLGGMIPKERMERALGSGVIISKDGYIVTNNHVIDGADKIKVTIPGSNKEYSATLVGTDSESDLAVIRITKDNLPTIKFADSNDISVGDLVFAIGNPFGVGESVTQGIVSALNKSGIGINSYENFIQTDASINPGNSGGALIDSRGGLVGINTAIISKTGGNHGIGFAIPSNMVKDTVTQLIKTGKIERGYLGVGLQDLSGDLQNSYDNKEGAVVISVEKDSPAKKAGILVWDLITEVNGKKVKNTNELRNLIGSMLPNQRVTLKVIRDKKERAFTLTLAERKNPNKKETISAQNGAQGQLNGLQVEDLTQETKRSMRLSDDVQGVLVSQVNENSPAEQAGFRQGNIITKIEEVEVKSVADFNHALEKYKGKPKRFLVLDLNQGYRIILVK
B2: HtrA wild type (wt) from the H. pylori strain Hp26695 (enzyme)
chain: B1 chain with A147S
notes: also called HpHtrA; HpHtrA wt

Assays:
[1] = target: T1, HpHtrA (Helicobacter pylori, UniProt G2J5T2); experiment: in vitro E-cadherin (hCdh1) cleavage by HpHtrA (Western blot); format: biochemical; details: 1 mM; 50 ng hCdh1, 250 ng HpHtrA, 16 h, 37 °C
T1 construct: (HpHtrA, G18-K475, UniProt G2J5T2); GST (N, cleaved yes); made in house; host or cells: E. coli BL21
T1 sequence (G2J5T2 18-475): B1 chain with A147S
Source text: (§1) The proteins were separated by SDS-PAGE and visualized by staining with Coomassie Brilliant Blue G250 (Lactan, Vienna, Austria). […] Proteins were separated using SDS-PAGE and blotted onto a nitrocellulose membrane. Human Cdh1 was detected by an antibody recognizing the EC5 domain of hCdh1 (Abcam, Cambridge, UK) and a polyclonal serum was used to detect HpHtrA[22]. Independent experiments were repeated at least three times.

[2] = target: T2, HpHtrA wt (Helicobacter pylori, UniProt G2J5T2); experiment: MS analysis of HpHtrA-mediated cleavage of the FRET peptide; format: biochemical; design: (HpHtrA, G18-K475, UniProt G2J5T2); GST (N, cleaved yes); made in house; host or cells: E. coli BL21; details: peptide:HpHtrA 20:1, 50 mM HEPES pH 7.4, 3 h, 37 °C, MALDI-TOF-MS
T2 sequence (G2J5T2 18-475): B1 chain with A147S
Protocol: (§2) Fig. S4. MS analysis of the HpHtrA-mediated cleavage products of 2-Abz-AQRVAF-Y(3-NO2)-NH2. The […]
(§3) ratio in 50 mM HEPES buffer (pH 7.4) for 3 h at 37°C. The samples were desalted by using ZipTip® pipette tips (Merck Millipore) and measured by MALDI -TOF-MS (positive mode). The peptide was found to be stable in the buffer in the absence of the protease as well as in the presence of the HpHtrA […]
(§4) (1 picture or pasted object on this page, not shown here)

[3] = format: physicochemical; details: 50 mM HEPES pH 7.4, 3 h, 37 °C, absence of protease and presence of HpHtrA SA mutant
Protocol: as §2, §3, §4

[4] = target: T1, HpHtrA; experiment: in vitro casein cleavage by HpHtrA (Coomassie SDS-PAGE); format: biochemical; details: 1 mM; 10 µg casein, 250 ng HpHtrA, 16 h, 37 °C
Source text: as §1

[5] = target: the molecule itself; experiment: casein zymography + other: non-reducing SDS-PAGE; recombinant HpHtrA proteins in non-reducing sample buffer without beta-mercaptoethanol; SDS-PAGE with 0.1% casein, renatured and developed 24 h at 37 °C, or Coomassie-stained non-reducing SDS-PAGE for detection of multimers
[6] = target: the molecule itself; experiment: non-reducing SDS-PAGE; HpHtrA wt untreated or with increasing concentrations of ZnCl2 or CuCl2; Coomassie-stained SDS-PAGE under non-reducing conditions

Molecule | effect on HpHtrA-mediated hCdh1 cleavage/fragmentation [1] | effect on HtrA-mediated casein degradation [4] | also measured
[Ca+2].[Cl-].[Cl-] [Ca^++, CaCl2] | significantly blocked | – | –
2-Abz-AQRVAF-Y(3-NO2)-NH2 ([2Abz]AQRVAF[Tyr(3-NO2)]-NH2; N-terminus assumed; SMILES CC(C)[C@H](NC(=O)[C@H](CCCNC(=N)N)NC(=O)[C@H](CCC(N)=O)NC(=O)[C@H](C)NC(=O)c1ccccc1N)C(=O)N[C@@H](C)C(=O)N[C@@H](Cc1ccccc1)C(=O)N[C@@H](Cc1ccc(O)c([N+](=O)[O-])c1)C(N)=O) [FRET substrate peptide AQRVAF with N-terminal 2-aminobenzoyl fluorophore and C-terminal 3-nitro-tyrosine quencher] | – | – | cleavage of the peptide by HpHtrA [2]: fully cleaved, preferentially after Val; stability of the peptide [3]: stable
O=C(O)CN(CCN(CC(=O)O)CC(=O)O)CC(=O)O [EDTA, ethylenediaminetetraacetic acid, reference compound] | considerably enhanced | did not alter | –
O=C(O)CN(CCOCCOCCN(CC(=O)O)CC(=O)O)CC(=O)O [EGTA, ethylene glycol-bis(β-aminoethyl ether)-N,N,N′,N′-tetraacetic acid, reference compound] | considerably enhanced | did not alter | –
B1 | – | – | binding result [5]: binds
B2 | – | – | binding result [6]: binds
